Patent US12649790B2, “Proteins that bind SP17 including fully-human anti-SP17 antibodies” (Medicovestor, Inc., priority 2023, dated 2026)
“Also recorded” adds a separate entry of the source. *1 amine or outer side, *2 acyl side, *3 side chain or, on linkers, in order; H or OH if unused. Where a SMILES comes first, the peptide text is derived from it. [ ]: non-standard residue; d: D form. The star is where a group is joined. Exatecan = CC[C@@]1(O)C(=O)OCc2c1cc1n(c2=O)Cc2c-1nc1cc(F)c(C)c3c1c2[C@@H](N*)CC3; Hexanoyl(6-maleimido) = O=C1C=CC(=O)N1CCCCCC(=O)*; NHCH2OCH2CO = O=C(COCN[*:1])[*:2]

T1: Sp17 protein (Homo sapiens, UniProt Q15506)
T1 sequence (Q15506 1-151): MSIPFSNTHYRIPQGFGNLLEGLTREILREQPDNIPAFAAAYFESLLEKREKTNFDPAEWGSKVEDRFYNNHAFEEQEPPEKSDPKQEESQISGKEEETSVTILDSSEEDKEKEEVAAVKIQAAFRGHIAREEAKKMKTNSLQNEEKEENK

T2: mouse surface Sp17 protein expressed on the mouse ovarian cancer cell line ID8 (Mus musculus, UniProt Q62252)
T2 construct: endogenous in cells; host or cells: ID8 mouse ovarian cancer cell line
T2 sequence (Q62252 1-149): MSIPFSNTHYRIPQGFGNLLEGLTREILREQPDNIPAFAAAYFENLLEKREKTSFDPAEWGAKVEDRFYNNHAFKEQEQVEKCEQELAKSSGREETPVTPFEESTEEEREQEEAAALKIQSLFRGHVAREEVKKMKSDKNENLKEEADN

T3: recombinant 6His-Sp17 protein (Homo sapiens, UniProt Q15506)
T3 sequence (Q15506 1-151): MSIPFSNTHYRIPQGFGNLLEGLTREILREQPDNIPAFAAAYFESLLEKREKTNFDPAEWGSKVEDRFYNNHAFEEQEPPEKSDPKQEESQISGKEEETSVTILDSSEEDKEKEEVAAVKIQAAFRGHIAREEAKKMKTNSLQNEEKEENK


Experiments:
[1] = tested on: ID8 cells; test: Cytotoxicity assay against ID8 cells; format: cell-based, mouse; conditions: 3 days
Protocol: […] The cells were then treated with various concentrations of either the SP17-AB2 antibody, the SP17-AB2-DXD immunoconjugate, hIgG4, or deruxtecan alone. The cells were incubated for 3 additional days, and then cytotoxicity was measured.

[2] = tested on: SK-OV-3 cells; test: Cytotoxicity assay (luminescence) against SK-OV-3 cells; conditions: 5 or 6 days
Protocol: SK-OV-3 cells were seeded at 1000, 2000, or 3000 cells per well and incubated overnight in advance of a cytotoxicity assay. […] The SK-OV-3 cells were treated with various concentrations of the SP17-AB2 antibody, the SP17-AB2-DXD immunoconjugate, a control human IgG4 antibody (hIgG4), or deruxtecan alone (DXD). The cells were incubated for 5 or 6 additional days, and cytotoxicity was then measured using a luminescence assay and EnVision™ plate reader (PerkinElmer, Massachusetts, United States).

[3] = target: T1, Sp17 protein; test: Western blot detection of Sp17 protein; format: binding; conditions: SDS-PAGE of Sp17 protein
Excerpt: (§1) The nucleotide sequences encoding the VH and VL regions of Example 1 were cloned into a mouse IgG2a heavy chain gene and a mouse kappa light chain gene, respectively, and expressed in CHO—S cells to produce a mouse-human chimeric antibody, which was named chAB2. Successful generation of the antibody was confirmed by SDS-PAGE and western blotting using anti-mouse heavy and light chain antibodies and recombinant Sp17 protein (FIGS. 2 & 3).
The VH and VL nucleotide sequences of Example 1 were cloned into a human IgG4 heavy chain gene and a human kappa light chain gene, respectively. A Ser228Pro mutation was introduced in the heavy chain to reduce non-specific Fc receptor gamma binding. The resultant antibody was named SP17-AB2. Successful cloning was confirmed by sequence analysis. The amino acid sequences of the heavy chain and light chain are shown in Table 4, and the Ser228Pro mutation is underlined in SEQ ID NO: 11.

[4] = target: T2, mouse surface Sp17 protein expressed on the mouse ovarian cancer cell line ID8; test: Flow cytometry of ID8 cells labeled with chAB2 and anti-mouse FITC antibody; format: cell-based; conditions: relative to anti-mouse FITC antibody alone
Protocol: FIG. 4 consists of three panels. The left panel is a graph that depicts flow cytometry results for ID8 cells incubated with an anti-mouse fluorescein isothiocyanate (FITC) antibody, but without a primary antibody. The middle panel is a graph that depicts flow cytometry results for ID8 cells labeled with the anti-Sp17 antibody chAB2 and the anti-mouse FITC antibody.
as §1

[5] = tested on: normal tissue microarray of 33 normal tissues; test: Immunohistochemistry on a normal tissue microarray (specificity); conditions: 2-3 human donors per tissue
Protocol: The specificity of the chAB2 antibody for Sp17 was determined with immunohistochemistry on a normal tissue microarray, which consisted of 33 normal tissues obtained from 2-3 human donors per tissue. The normal tissues included brain, eye, adrenal gland, hypophyseal, thyroid, parathyroid, tonsil, thymus, spleen, heart, lung, larynx, esophagus, stomach, small intestine, colon, liver, pancreas, salivary gland, kidney, bone, skeletal, skin, peripheral nerve, mesothelial, breast, ovary, endometrium, cervix, testis, and prostate.

[6] = target: T3, recombinant 6His-Sp17 protein; test: Surface plasmon resonance (Biacore T200) of chAB2 binding to recombinant 6His-Sp17; conditions: SPR
Excerpt: The lines correspond, from highest to lowest, to fitted cycles for 300 nanomolar, 100 nanomolar, 50 nanomolar, 25 nanomolar, 12.5 nanomolar, and 6.25 nanomolar concentrations of 6His-Sp17.
as §1

[7] = SK-OV-3 cells at 1000 cells/well
[8] = SK-OV-3 cells at 2000 cells/well
[9] = SK-OV-3 cells at 3000 cells/well

Molecule | Max Cytotoxicity ([1]; ID8 cells at 250 cells/well) | Max Cytotoxicity ([1]; ID8 cells at 500 cells/well) | IC50 [2, 7] | Max Cytotoxicity [2, 7] | IC50 [2, 8] | Max Cytotoxicity [2, 8] | IC50 [2, 9] | Max Cytotoxicity [2, 9] | binding/detection of Sp17 protein by western blot [3] | reactivity to surface Sp17 on ID8 cells by flow cytometry (mean fluorescent intensity) [4] | binding to normal human tissues / cross-reactivity by immunohistochemistry [5] | association rate constant (ka) for chAB2 to Sp17 ([6]; 6.25-300 nanomolar 6His-Sp17) | Kd ([6]; Biacore T200, read-out: dissociation constant (KD))
CC[C@@]1(O)C(=O)OCc2c1cc1n(c2=O)Cc2c-1nc1cc(F)c(C)c3c1c2[C@@H](NC(=O)COCNC(=O)CNC(=O)[C@H](Cc1ccccc1)NC(=O)CNC(=O)CNC(=O)CCCCCN1C(=O)C=CC1=O)CC3 [deruxtecan] ({Hexanoyl(6-maleimido)}-GGFG[NHCH2OCH2CO]-Exatecan) | 94% | 93% | 0.75 nM | 98% | 1.1 nM | 97% | 1.2 nM | 97% | – | – | – | – | –
chAB2: mouse-human chimeric anti-Sp17 monoclonal antibody: human VH/VL (SEQ ID NO: 3, 4) in mouse IgG2a heavy chain and mouse kappa light chain (antibody, V domains shown, mouse IgG2a and kappa constant regions) VH: QVQLQQSGAEVKKPGSSVKVSCKASGGTFSSYAISWVRQAPGQGLEWMGRIIPILGIANYAQKFQGRVTITADKSTSTAYMELSSLRSEDTAVYYCARPSEEVVAAYGAFDIWGQGTTVTVSS VL: EIVLTQSPLSLPVRPGEPASISCRASQSLLRSDGFNYLDWYLQKPGQSPQLLVYLGSNRASGVPDRFSGSGSGTDFTLKISRVEAEDVGVYYCMQAVQTPYIFGQGTKLEIK | – | – | – | – | – | – | – | – | Sp17 protein was detected | reactive to mouse surface Sp17 protein; also recorded: increased mean fluorescent intensity | bound to testis and did not bind to normal tissues; also recorded: lack detectable cross-reactivity | 62,600 per mole per second | ~2 nM
